Source: patent US20130252247A1, “KIT FOR SCREENING FOR SKIN-ACTIVATING SUBSTANCES AND COMPRISING THE KLOTHO GENE, AND METHOD FOR SCREENING FOR SKIN-ACTIVATING SUBSTANCES USING THE SAME” (Amorepacific Corporation, priority 2011, published 2013)

Tested on: Klotho
Experiment: Klotho expression in keratinocytes treated with retinoic acid and retinol, quantitative real-time PCR
Format: cell-based, human
Method: In order to examine whether Klotho protein is expressed in skin cells, primers of SEQ ID NOS: 1 and 2, which can amplify Klotho gene (NCBI accession No. NM-004795), were constructed. Then, RT-PCR was performed using the primer set and a probe of SEQ ID NO: 3 (TaqMan™ fluorogenic probe) in order to detect Klotho mRNA in the cDNA of keratinocytes (NHK), fibroblasts (NHF), NHM-promoblack (Normal Human Epidermal Melanocytes (NHEM) juvenile foreskin, Promocell: melanocytes derived from dark-skinned persons), NHM-DP (NHM-dark pigment, Invitrogen: melanocytes derived from dark-skinned persons) and NHM-MP (NHM-moderate pigment, Invitrogen: melanocytes derived from Asian). The PCR reaction was performed for 35 cycles, each consisting of denaturation at 94° C. for 30 sec, annealing at 55° C. for 30 sec, and extension at 72° C. for 60 sec. As a positive control, the cDNA of human embryonic kidney cells (HEK293) known to express Klotho gene was used.
In order to examine the effects of retinoic acid and retinol (known as anti-aging substances) on the expression of Klotho in keratinocytes, quantitative real time PCR was performed under the same conditions as described in Test Example 1, and the expression levels of Klotho protein were examined at 2 days and 8 days after treatment of the cells with each of 0.1 μM and 1 μM of retinoic acid and 1 μM and 10 μM of retinol.

For CC1=C(/C=C/C(C)=C/C=C/C(C)=C/CO)C(C)(C)CCC1 [retinol], the “expression level of Klotho protein” value (keratinocytes, 8 days after treatment, 0.1 μM and 1 μM retinoic acid, 1 μM and 10 μM retinol, FIG. 3) was “significantly increased” and the “expression of Klotho protein” value (summary statement, found using the kit) was “increased”.
